# ChEMBL document CHEMBL4507265 (2021)
# Assays:
# [1] = target: D(1B) dopamine receptor (Homo sapiens) (UniProt P21918); settings: Compound concentration 10.0 uM
# [2] = tested on: ALK tyrosine kinase receptor (Homo sapiens), Q9UM73 [L1196M]; settings: Compound concentration 1000.0 nM
# [3] = target: Dual specificity mitogen-activated protein kinase kinase 5 (Homo sapiens) (UniProt Q13163); settings: Compound concentration 1000.0 nM
# [4] = target: Cyclin-dependent kinase 4 (Homo sapiens) (UniProt P11802); settings: Compound concentration 1000.0 nM
# [5] = target: Protein kinase C epsilon type (Homo sapiens) (UniProt Q02156); settings: Compound concentration 1000.0 nM
# [6] = target: Serine/threonine-protein kinase PAK 6 (Homo sapiens) (UniProt Q9NQU5); settings: Compound concentration 1000.0 nM
# [7] = target: Calcium-dependent protein kinase 1 (Plasmodium falciparum) (UniProt P62344); settings: Compound concentration 1000.0 nM
# Calcium-dependent protein kinase 1 (Plasmodium falciparum), sequence (P62344 2-524 limits assumed): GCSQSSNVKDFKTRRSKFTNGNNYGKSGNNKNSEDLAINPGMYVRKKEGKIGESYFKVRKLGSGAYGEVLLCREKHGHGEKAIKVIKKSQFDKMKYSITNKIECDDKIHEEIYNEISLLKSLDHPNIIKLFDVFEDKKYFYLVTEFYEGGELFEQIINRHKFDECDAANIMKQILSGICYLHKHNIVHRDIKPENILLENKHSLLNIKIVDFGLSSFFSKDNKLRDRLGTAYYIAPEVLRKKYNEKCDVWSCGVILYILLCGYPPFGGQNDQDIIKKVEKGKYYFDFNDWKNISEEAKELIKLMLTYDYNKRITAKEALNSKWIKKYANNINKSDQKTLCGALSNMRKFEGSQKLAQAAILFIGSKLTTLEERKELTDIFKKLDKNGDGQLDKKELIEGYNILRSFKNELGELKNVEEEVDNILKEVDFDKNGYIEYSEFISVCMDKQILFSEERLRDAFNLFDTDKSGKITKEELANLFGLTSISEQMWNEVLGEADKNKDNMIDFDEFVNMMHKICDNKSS
# [8] = target: Activin receptor type-1B (Homo sapiens) (UniProt P36896); settings: Compound concentration 1000.0 nM
# Activin receptor type-1B (Homo sapiens), sequence (P36896 whole entry): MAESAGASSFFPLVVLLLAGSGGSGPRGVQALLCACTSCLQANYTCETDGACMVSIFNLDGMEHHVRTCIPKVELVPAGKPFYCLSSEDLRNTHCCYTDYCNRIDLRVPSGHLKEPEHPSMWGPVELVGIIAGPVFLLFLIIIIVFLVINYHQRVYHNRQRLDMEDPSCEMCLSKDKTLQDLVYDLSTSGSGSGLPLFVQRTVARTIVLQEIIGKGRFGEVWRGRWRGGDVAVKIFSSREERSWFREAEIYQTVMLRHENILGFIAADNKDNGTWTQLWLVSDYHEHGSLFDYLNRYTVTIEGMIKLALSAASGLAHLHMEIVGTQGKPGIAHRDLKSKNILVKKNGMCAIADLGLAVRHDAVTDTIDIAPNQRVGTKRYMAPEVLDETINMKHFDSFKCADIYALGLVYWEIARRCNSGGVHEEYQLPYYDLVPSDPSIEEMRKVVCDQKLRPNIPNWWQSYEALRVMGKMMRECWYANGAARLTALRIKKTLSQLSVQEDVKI
# [9] = target: Serine/threonine-protein kinase PAK 4 (Homo sapiens) (UniProt O96013); settings: Compound concentration 1000.0 nM
# [10] = target: Serine/threonine-protein kinase 25 (Homo sapiens) (UniProt O00506); settings: Compound concentration 1000.0 nM
# [11] = target: Serine/threonine-protein kinase Nek6 (Homo sapiens) (UniProt Q9HC98); settings: Compound concentration 1000.0 nM
# [12] = target: Cyclin-dependent kinase-like 3 (Homo sapiens) (UniProt Q8IVW4); settings: Compound concentration 1000.0 nM
# Cyclin-dependent kinase-like 3 (Homo sapiens), sequence (Q8IVW4 whole entry, looked up): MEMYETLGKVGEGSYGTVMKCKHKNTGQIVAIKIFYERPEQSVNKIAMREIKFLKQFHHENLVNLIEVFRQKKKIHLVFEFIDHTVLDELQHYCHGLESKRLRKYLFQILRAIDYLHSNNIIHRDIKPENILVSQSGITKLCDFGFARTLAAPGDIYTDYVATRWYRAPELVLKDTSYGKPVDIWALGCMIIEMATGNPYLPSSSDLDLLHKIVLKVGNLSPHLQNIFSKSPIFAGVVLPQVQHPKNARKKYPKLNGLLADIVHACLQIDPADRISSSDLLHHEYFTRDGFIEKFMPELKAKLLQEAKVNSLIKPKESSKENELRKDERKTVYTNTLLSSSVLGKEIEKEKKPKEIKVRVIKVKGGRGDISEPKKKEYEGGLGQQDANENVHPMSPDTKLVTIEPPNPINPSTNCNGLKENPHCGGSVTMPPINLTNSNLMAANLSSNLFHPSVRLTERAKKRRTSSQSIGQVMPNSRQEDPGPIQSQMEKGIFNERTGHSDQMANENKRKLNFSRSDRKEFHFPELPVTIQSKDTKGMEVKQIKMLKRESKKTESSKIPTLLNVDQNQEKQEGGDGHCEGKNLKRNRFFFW
# [13] = tested on: Hepatocyte growth factor receptor (Homo sapiens), P08581 [M1250T]; settings: Compound concentration 1000.0 nM
# [14] = target: Mast/stem cell growth factor receptor Kit (Homo sapiens) (UniProt P10721); settings: Compound concentration 1000.0 nM
# Mast/stem cell growth factor receptor Kit (Homo sapiens), sequence (P10721 whole entry): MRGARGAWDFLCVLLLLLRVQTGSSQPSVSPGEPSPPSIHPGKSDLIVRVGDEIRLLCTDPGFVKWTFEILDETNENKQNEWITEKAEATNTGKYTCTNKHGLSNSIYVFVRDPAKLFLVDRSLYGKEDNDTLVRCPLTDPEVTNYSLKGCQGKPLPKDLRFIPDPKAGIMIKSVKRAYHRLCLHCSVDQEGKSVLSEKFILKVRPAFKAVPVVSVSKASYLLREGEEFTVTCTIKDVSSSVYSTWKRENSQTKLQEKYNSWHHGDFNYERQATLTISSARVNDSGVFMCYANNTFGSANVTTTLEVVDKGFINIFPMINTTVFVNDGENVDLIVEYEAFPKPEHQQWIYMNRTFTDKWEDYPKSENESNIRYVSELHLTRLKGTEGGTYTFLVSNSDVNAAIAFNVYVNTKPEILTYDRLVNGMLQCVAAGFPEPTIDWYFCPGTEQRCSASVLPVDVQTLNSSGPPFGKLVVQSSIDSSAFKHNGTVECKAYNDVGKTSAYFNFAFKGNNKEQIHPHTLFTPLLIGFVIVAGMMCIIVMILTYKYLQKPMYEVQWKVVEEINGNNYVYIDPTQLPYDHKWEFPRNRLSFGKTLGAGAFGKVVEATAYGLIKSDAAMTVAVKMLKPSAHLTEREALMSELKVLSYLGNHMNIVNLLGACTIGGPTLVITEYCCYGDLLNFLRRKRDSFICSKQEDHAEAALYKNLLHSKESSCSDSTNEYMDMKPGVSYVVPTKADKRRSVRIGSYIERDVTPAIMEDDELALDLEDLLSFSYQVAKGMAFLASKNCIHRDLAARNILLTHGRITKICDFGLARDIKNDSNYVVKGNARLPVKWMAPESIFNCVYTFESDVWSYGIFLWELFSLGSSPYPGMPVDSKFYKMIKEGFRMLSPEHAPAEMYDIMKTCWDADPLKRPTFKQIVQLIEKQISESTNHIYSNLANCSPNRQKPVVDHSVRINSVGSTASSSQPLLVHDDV
# [15] = target: 5-hydroxytryptamine receptor 5A (Homo sapiens) (UniProt P47898); settings: Compound concentration 10.0 uM
# [16] = target: Ribosomal protein S6 kinase alpha-5 (Homo sapiens) (UniProt O75582); settings: Compound concentration 1000.0 nM
# [17] = target: Muscarinic acetylcholine receptor M3 (Homo sapiens) (UniProt P20309); settings: Compound concentration 10.0 uM
# [18] = target: Casein kinase I isoform alpha-like (Homo sapiens) (UniProt Q8N752); settings: Compound concentration 1000.0 nM
# Casein kinase I isoform alpha-like (Homo sapiens), sequence (Q8N752 whole entry, canonical isoform): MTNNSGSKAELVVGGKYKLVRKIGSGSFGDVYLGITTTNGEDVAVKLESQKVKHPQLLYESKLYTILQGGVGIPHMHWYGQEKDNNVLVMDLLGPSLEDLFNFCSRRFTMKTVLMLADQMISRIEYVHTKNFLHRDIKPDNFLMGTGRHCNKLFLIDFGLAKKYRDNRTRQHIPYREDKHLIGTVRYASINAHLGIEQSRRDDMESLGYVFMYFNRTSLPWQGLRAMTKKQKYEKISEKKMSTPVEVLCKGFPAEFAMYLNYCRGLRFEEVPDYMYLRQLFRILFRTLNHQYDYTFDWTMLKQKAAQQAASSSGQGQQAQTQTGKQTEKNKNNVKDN
# [19] = target: Atypical kinase COQ8B, mitochondrial (Homo sapiens) (UniProt Q96D53); settings: Compound concentration 1000.0 nM
# [20] = target: Dual specificity testis-specific protein kinase 1 (Homo sapiens) (UniProt Q15569); settings: Compound concentration 1000.0 nM
# [21] = target: Serine/threonine-protein kinase TAO2 (Homo sapiens) (UniProt Q9UL54); settings: Compound concentration 1000.0 nM
# [22] = target: Mast/stem cell growth factor receptor Kit (Homo sapiens) (UniProt P10721); settings: Compound concentration 1000.0 nM; remark: listed apart in the source
# [23] = tested on: Proto-oncogene tyrosine-protein kinase receptor Ret (Homo sapiens), P07949 [V804L]; settings: Compound concentration 1000.0 nM
# [24] = target: Interferon-induced, double-stranded RNA-activated protein kinase (Homo sapiens) (UniProt P19525); settings: Compound concentration 1000.0 nM
# [25] = target: Protein kinase C iota type (Homo sapiens) (UniProt P41743); settings: Compound concentration 1000.0 nM
# [26] = tested on: Phosphatidylinositol 4,5-bisphosphate 3-kinase catalytic subunit alpha isoform (Homo sapiens), P42336 [E545A]; settings: Compound concentration 1000.0 nM
# [27] = target: Citron Rho-interacting kinase (Homo sapiens) (UniProt O14578); settings: Compound concentration 1000.0 nM
# [28] = tested on: Receptor-type tyrosine-protein kinase FLT3 (Homo sapiens), P36888 [D835Y]; settings: Compound concentration 1000.0 nM
# [29] = target: Serine/threonine-protein kinase Nek3 (Homo sapiens) (UniProt P51956); settings: Compound concentration 1000.0 nM
# [30] = target: Vascular endothelial growth factor receptor 3 (Homo sapiens) (UniProt P35916); settings: Compound concentration 1000.0 nM
# [31] = target: Mitogen-activated protein kinase kinase kinase 6 (Homo sapiens) (UniProt O95382); settings: Compound concentration 1000.0 nM
# Mitogen-activated protein kinase kinase kinase 6 (Homo sapiens), sequence (O95382 whole entry): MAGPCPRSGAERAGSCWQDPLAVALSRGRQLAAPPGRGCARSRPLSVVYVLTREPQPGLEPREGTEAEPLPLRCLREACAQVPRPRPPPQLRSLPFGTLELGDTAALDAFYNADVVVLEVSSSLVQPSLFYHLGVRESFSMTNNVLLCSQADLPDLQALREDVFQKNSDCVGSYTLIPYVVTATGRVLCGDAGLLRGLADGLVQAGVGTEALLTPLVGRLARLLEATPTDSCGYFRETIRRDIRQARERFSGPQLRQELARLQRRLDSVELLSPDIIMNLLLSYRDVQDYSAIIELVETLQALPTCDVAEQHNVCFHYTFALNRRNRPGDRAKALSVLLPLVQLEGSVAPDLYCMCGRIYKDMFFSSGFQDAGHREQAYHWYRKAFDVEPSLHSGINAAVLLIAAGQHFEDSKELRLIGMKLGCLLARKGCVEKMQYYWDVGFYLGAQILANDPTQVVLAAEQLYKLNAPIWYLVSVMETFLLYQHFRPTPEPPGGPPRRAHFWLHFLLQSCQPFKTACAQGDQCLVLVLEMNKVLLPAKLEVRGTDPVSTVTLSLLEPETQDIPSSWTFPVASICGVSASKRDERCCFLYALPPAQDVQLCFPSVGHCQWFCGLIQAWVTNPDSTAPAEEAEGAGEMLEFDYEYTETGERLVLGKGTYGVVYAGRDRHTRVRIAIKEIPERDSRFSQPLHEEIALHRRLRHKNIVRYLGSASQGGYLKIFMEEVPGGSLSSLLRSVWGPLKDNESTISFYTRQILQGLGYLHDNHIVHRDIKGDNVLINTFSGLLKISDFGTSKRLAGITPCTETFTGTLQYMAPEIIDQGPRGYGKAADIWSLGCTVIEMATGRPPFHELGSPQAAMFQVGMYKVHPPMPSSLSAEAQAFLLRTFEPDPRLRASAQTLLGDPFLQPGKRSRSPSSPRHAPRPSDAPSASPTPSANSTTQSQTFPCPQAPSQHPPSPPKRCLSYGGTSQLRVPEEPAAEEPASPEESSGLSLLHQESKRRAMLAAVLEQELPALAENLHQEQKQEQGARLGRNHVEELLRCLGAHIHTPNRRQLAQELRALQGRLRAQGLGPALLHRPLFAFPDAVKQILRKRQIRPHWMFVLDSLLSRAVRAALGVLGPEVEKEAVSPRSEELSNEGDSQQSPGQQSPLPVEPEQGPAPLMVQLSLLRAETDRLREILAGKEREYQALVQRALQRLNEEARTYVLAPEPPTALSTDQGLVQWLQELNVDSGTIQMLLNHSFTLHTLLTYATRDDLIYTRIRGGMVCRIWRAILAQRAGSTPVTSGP
# [32] = target: Misshapen-like kinase 1 (Homo sapiens) (UniProt Q8N4C8); settings: Compound concentration 1000.0 nM
# [33] = target: Serine/threonine-protein kinase Nek1 (Homo sapiens) (UniProt Q96PY6); settings: Compound concentration 1000.0 nM
# [34] = target: Cyclin-dependent kinase 19 (Homo sapiens) (UniProt Q9BWU1); settings: Compound concentration 1000.0 nM
# [35] = target: Maternal embryonic leucine zipper kinase (Homo sapiens) (UniProt Q14680); settings: Compound concentration 1000.0 nM
# [36] = target: Serine/threonine-protein kinase WNK3 (Homo sapiens) (UniProt Q9BYP7); settings: Compound concentration 1000.0 nM
# [37] = target: Receptor tyrosine-protein kinase erbB-2 (Homo sapiens) (UniProt P04626); settings: Compound concentration 1000.0 nM
# [38] = target: Non-receptor tyrosine-protein kinase TYK2 (Homo sapiens) (UniProt P29597); settings: Compound concentration 1000.0 nM
# [39] = target: Alpha-1B adrenergic receptor (Homo sapiens) (UniProt P35368); settings: Compound concentration 10.0 uM
# [40] = target: Serine/threonine-protein kinase pim-1 (Homo sapiens) (UniProt P11309); settings: Compound concentration 1000.0 nM
# [41] = target: Phosphatidylinositol 4-kinase beta (Homo sapiens) (UniProt Q9UBF8); settings: Compound concentration 1000.0 nM
# Phosphatidylinositol 4-kinase beta (Homo sapiens), sequence (Q9UBF8 2-816 limits assumed): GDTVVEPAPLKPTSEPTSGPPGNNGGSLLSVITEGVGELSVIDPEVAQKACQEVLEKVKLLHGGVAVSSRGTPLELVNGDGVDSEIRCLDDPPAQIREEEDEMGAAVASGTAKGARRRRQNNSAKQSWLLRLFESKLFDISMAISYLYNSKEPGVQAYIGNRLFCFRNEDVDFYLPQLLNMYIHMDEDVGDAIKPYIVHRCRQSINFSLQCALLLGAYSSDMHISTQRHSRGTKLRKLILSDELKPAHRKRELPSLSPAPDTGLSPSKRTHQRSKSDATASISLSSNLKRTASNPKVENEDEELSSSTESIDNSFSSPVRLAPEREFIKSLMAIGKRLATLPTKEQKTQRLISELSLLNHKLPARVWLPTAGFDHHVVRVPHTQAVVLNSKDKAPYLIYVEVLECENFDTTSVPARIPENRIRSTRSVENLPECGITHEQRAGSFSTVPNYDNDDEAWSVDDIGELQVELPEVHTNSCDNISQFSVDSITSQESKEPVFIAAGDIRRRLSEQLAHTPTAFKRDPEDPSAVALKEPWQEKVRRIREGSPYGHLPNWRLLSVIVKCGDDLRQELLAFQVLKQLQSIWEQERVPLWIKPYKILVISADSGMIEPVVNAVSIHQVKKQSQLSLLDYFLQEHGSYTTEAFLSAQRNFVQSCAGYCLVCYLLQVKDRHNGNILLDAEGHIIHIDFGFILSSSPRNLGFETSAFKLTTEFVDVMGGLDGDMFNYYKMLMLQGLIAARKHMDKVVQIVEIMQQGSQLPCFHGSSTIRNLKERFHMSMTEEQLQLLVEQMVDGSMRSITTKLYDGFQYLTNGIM
# [42] = target: Serine/threonine-protein kinase Sgk3 (Homo sapiens) (UniProt Q96BR1); settings: Compound concentration 1000.0 nM
# [43] = tested on: Tyrosine-protein kinase ABL1 (Homo sapiens), P00519 [H396P]; settings: Compound concentration 1000.0 nM
# [44] = target: Inhibitor of nuclear factor kappa-B kinase subunit beta (Homo sapiens) (UniProt O14920); settings: Compound concentration 1000.0 nM
# [45] = target: Sodium-dependent serotonin transporter (Homo sapiens) (UniProt P31645); settings: Compound concentration 10.0 uM
structure (smiles),measurement,setting,value
NS(=O)(=O)c1cc(NC(=O)C2(c3ccccc3Cl)CC2)ccc1Oc1cccc(Cl)c1 [BAY-207],inhibition,[1],20.8%
same,residual activity,[2],85%
same,residual activity,[3],94%
same,residual activity,[4],95%
same,residual activity,[5],65%
same,residual activity,[6],100%
same,residual activity,[7],89%
same,residual activity,[8],89%
same,residual activity,[9],74%
same,residual activity,[10],100%
same,residual activity,[11],81%
same,residual activity,[12],77%
same,residual activity,[13],68%
same,residual activity,[14],90%
same,inhibition,[15],5.57%
same,residual activity,[16],100%
same,inhibition,[17],17.9%
same,residual activity,[18],84%
same,residual activity,[19],63%
same,residual activity,[20],100%
same,residual activity,[21],82%
same,residual activity,[22],79%
same,residual activity,[23],70%
same,residual activity,[24],100%
same,residual activity,[25],98%
same,residual activity,[26],82%
same,residual activity,[27],78%
same,residual activity,[28],100%
same,residual activity,[29],95%
same,residual activity,[30],67%
same,residual activity,[31],100%
same,residual activity,[32],86%
same,residual activity,[33],100%
same,residual activity,[34],85%
same,residual activity,[35],96%
same,residual activity,[36],78%
same,residual activity,[37],49%
same,residual activity,[38],80%
same,inhibition,[39],-8.97%
same,residual activity,[40],94%
same,residual activity,[41],75%
same,residual activity,[42],90%
same,residual activity,[43],81%
same,residual activity,[44],70%
same,inhibition,[45],8.86%
NS(=O)(=O)c1cc(NC(=O)Cc2ccccc2)ccc1Oc1cccc(Cl)c1 [BAY-1797],inhibition,[1],27.7%
same,residual activity,[2],62%
same,residual activity,[3],88%
same,residual activity,[4],74%
same,residual activity,[5],87%
same,residual activity,[6],100%
same,residual activity,[7],91%
same,residual activity,[8],98%
same,residual activity,[9],87%
same,residual activity,[10],88%
same,residual activity,[11],98%
same,residual activity,[12],95%
same,residual activity,[13],99%
same,residual activity,[14],89%
same,inhibition,[15],1.47%
same,residual activity,[16],71%
same,inhibition,[17],-0.53%
same,residual activity,[18],74%
same,residual activity,[19],100%
same,residual activity,[20],100%
same,residual activity,[21],76%
same,residual activity,[22],87%
same,residual activity,[23],80%
same,residual activity,[24],80%
same,residual activity,[25],93%
same,residual activity,[26],69%
same,residual activity,[27],100%
same,residual activity,[28],95%
same,residual activity,[29],100%
same,residual activity,[30],79%
same,residual activity,[31],72%
same,residual activity,[32],90%
same,residual activity,[33],93%
same,residual activity,[34],91%
same,residual activity,[35],59%
same,residual activity,[36],78%
same,residual activity,[37],87%
same,residual activity,[38],67%
same,inhibition,[39],-0.38%
same,residual activity,[40],89%
same,residual activity,[41],55%
same,residual activity,[42],83%
same,residual activity,[43],97%
same,residual activity,[44],91%
same,inhibition,[45],22.7%
